Source: patent US8129410B2, “Benzisoxazole piperidine compounds and methods of use thereof” (Hypnion, Inc., priority 2005, dated 2012)

System: adult, male Wistar rats
Experiment: Sleep-wakefulness monitoring (SCORE-2004, EEG/EMG) in rats after oral dosing at CT-18
Format: in vivo, rat
Details: for LONGEST UNINTERRUPTED SLEEP BOUT: bout length defined in minutes; for MAXIMUM NREM SLEEP CUMULATION: cumulative nonREM defined in minutes, in min
Procedure: Sleep-wakefulness, locomotor activity and body temperature are monitored in male Wistar rats treated with a test compound (i.e., benzisoxazole analog) initially at a concentration of 10 mg/kg. Higher and lower doses are assayed for select compounds (e.g., as high as 45 mg/kg, and as low as necessary to establish a no-effect dose). Treatments are administered at CT-18, the peak of the activity dominated period (6 hours after lights-off), and produced soporific (sleep-inducing) effects characterized by increased non-REM sleep time, increased sleep continuity, but without evidence of REM sleep inhibition or rebound insomnia.
Sleep-wakefulness, locomotor activity and body temperature were monitored in vivo with various compounds of the invention. Adult, male Wistar rats (250 g at time of surgery, Charles River Laboratories, Wilmington Mass.) were anesthetized (2% isoflourane in medical grade oxygen) and surgically prepared with a cranial implant to permit chronic electro-encephalogram (EEG) and electromyogram (EMG) recording. Body temperature and locomotor activity were monitored via a miniature transmitter (Mini-Mitter, Bend, Oreg.) surgically placed in the abdomen. The cranial implant consisted of stainless steel screws (two frontal [+3.2 AP from bregma, ±2.0 ML] and two occipital [−6.9 AP, ±5.5 ML]) for EEG recording. Two Teflon®-coated stainless steel wires were positioned under the nuchal trapezoid muscles for EMG recording. All leads were soldered to a miniature connector prior to surgery, and gas sterilized in ethylene oxide. The implant assembly was affixed to the skull with dental acrylic. A minimum of three weeks was allowed for surgical recovery.
Each rat was permanently housed in its own individual recording cage located within separate, ventilated compartments of custom-designed stainless steel cabinets. Each cage was enhanced with a filter-top riser and low-torque swivel-commutator. Food and water were available ad libitum. A 24-hr light-dark cycle (12 hours light, 12 hours dark) was maintained throughout the study. Animals were undisturbed for at least 48 hours before and after treatments.
Sleep and wakefulness were determined using “SCORE-2004™” (Hypnion, Worcester, Mass.)—an internet-based sleep-wake and physiological monitoring system. The system monitored amplified EEG (bandpass 1-30 Hz), integrated EMG (bandpass 10-100 Hz), body temperature and non-specific locomotor activity (LMA) via telemetry, and drinking activity, continuously and simultaneously. Arousal states were classified on-line as non-REM (NREM) sleep, REM sleep, wake, or theta-dominated wake every 10 seconds. Total drinking and locomotor activity counts, and body temperature were quantitiated and recorded each minute, using EEG feature extraction and pattern-matching algorithms. […] The classification algorithm used individually-taught EEG-arousal-state templates, plus EMG criteria to differentiate REM sleep from theta-dominated wakefulness, plus behavior-dependent contextual rules (e.g., if the animal was drinking, it is awake). Drinking and locomotor activity intensity (LMA) were recorded every 10 seconds, while body temperature was recorded each minute. Locomotor activity was detected by a telemetry receiver (Mini-Mitter) beneath the cage. Telemetry measures (LMA and body temperature) were not part of the scoring algorithm; thus, sleep-scoring and telemetry data were independent measures.
Compounds were administered at CT-18, the peak of the activity-dominated period, sufficient time was allowed to view the time course of the treatment effect before lights-on (6 hours post-treatment). Compounds were suspended in sterile 0.25% or 0.5% methylcellulose (1-2 ml/kg). Treatments were administered orally as a bolus.
A parallel group study design was employed. […]

Structure (SMILES): CC(C)(CN1CCC(c2noc3ccccc23)CC1)C(=O)O [Compound 1]
- LONGEST UNINTERRUPTED SLEEP BOUT (0.3 mg/kg oral): 3.3 ± 1.8
- MAXIMUM NREM SLEEP CUMULATION (0.3 mg/kg oral): 13 ± 4
- LONGEST UNINTERRUPTED SLEEP BOUT (1 mg/kg oral): 17.2 ± 4.8
- MAXIMUM NREM SLEEP CUMULATION (1 mg/kg oral): 23 ± 6
- LONGEST UNINTERRUPTED SLEEP BOUT (3 mg/kg oral): 16.1 ± 2.3
- MAXIMUM NREM SLEEP CUMULATION (3 mg/kg oral): 21 ± 6
- LONGEST UNINTERRUPTED SLEEP BOUT (10 mg/kg oral): 15.2 ± 3.3
- MAXIMUM NREM SLEEP CUMULATION (10 mg/kg oral): 28 ± 5
